Test results reported in patent US9328093B2, “Selective inhibitors of ubiquitin specific protease 7, the pharmaceutical compositions thereof and their therapeutic applications” (HYBRIGENICS SA, priority 2010, dated 2016).

target: T1, USP7 (Homo sapiens, UniProt Q93009); assay: USP7 activity assay (Ub-AMC substrate); type: biochemical; details: Ub-AMC 300 nM, USP7 100 pM, 30 min pre-incubation
T1 construct: Full-length wild-type human USP7 and its catalytic mutant (cysteine 223 replaced by alanine, C223A) were produced as N-terminally His-tagged fusions; His (N); made in house; host or cells: Spodoptera frugiperda Sf9 (or High Five) insect cells, baculovirus pFastBac-HT-B
From the text: The cDNA encoding USP7 was obtained by PCR amplification from placenta mRNA. USP7 cDNA was subcloned by PCR into a baculovirus expression vector (pFastBac-HT; Invitrogen). Full-length wild-type human USP7 and its catalytic mutant (cysteine 223 replaced by alanine, C223A) were produced as N-terminally His-tagged fusions in Spodoptera frugiperda cells (Sf9, Invitrogen), using the Bac-to-Bac Baculovirus system from Invitrogen according to the manufacturer's instructions. pFastBac-HT-B-USP7 was used to transform DH10bac cells (Invitrogen), and blue/white selection was carried out on X-gal/IPTG agar plates. Bacmid DNA was prepared by an alkaline lysis procedure. The integrity of the bacmid minipreps and their orientation were checked by PCR, using generic and specific primers. Sf9 insect cells were cultured in InsectXpress medium (Cambrex) at 27° C. and transfected with the corresponding bacmid, using GeneShuttle 40 (Q-BIOgen). Viruses were recovered in the supernatant 72 h after transfection. Viruses were amplified by infecting insect cells (Sf9 or High Five cells; invitrogen) in 50 ml InsectXpress medium in a 150 cm^2 cell culture flask with 500 μl of the supernatant from transfected Sf9 cells. Following the second round of amplification, infected cells were recovered by rapid SDS lysis, boiled for 5 min at 100° C., sonicated briefly and centrifuged for 20 min at 14,000 g. Expression levels in infected Sf9 cells were compared with those in uninfected cells. Fusion proteins were then allowed to bind to TALON beads (BD Biosciences, TALON metal affinity resin) for 30 min at 4° C. with gentle rocking. Beads were extensively washed (50 mM sodium phosphate buffer pH 7.0, 500 mM NaCl, 10 mM Imidazole, 0.5% Triton X-100 and 10% glycerol) and bound proteins were eluted in wash buffer supplemented with 250 mM Imidazole (Sigma). Eluted fractions were resolved on 4-12% NuPAGE gels (Novex, Invitrogen). Fractions containing high concentrations of purified proteins (purity >95%) were dialyzed (20 mM Tris HCl pH 7.6, 200 mM NaCl, 1 mM DTT, 1 mM EDTA and 10% glycerol) were aliquoted and snap frozen in liquid nitrogen before storage at −80° C.
USP7 was diluted in USP buffer (50 mM Tris HCl; 0.5 mM EDTA; 5 mM DTT; 0.01% Triton X-100; Bovine Serum Albumin 0.05 mg·ml^−1 pH7.6). Compounds stocks (10 mM) were stored at −20° C. in DMSO. Compounds were tested at different concentrations: from 200 μM to 91 nM.
Reactions were performed as duplicates in Black 384 well plates (small volumes microplates; Greiner; 10 μl final reaction volume). The substrate concentration for USP7 was 300 nM Ub-AMC (Chem. Biol., 2003, 10, p. 837-846) (Boston Biochem). The concentrations of the enzyme (USP7) in specificity assays was 100 pM. The concentrations were determined in order to perform specificity assays under initial velocities at fixed substrate concentration. Compounds were pre-incubated with enzymes for 30 minutes at 25° C. Reactions were initiated by addition of substrate to the plates containing the enzymes (+/− compounds) diluted in assay buffer. Reactions were incubated for 60 minutes at 37° C. Reactions were stopped by adding acetic acid (100 mM final). Readings were performed on a Pherastar Fluorescent Reader (BMG). λ
Emission 380 nm; λ Excitation=460 nm. Data (mean values +/− standard deviation) were analyzed as % of control (no compound) and plotted as percentage versus the Log of the compound concentration using GraphPad (Prism). Data were fitted to a sigmoidal model (variable slope).

IC50 [µM]	Compound
18.3	O=C(NCc1cccc(CN2CCCC2)c1)c1ccc2c(Cl)c3c(nc2c1)CCCC3 [Example 18, 9-chloro-N-(3-(pyrrolidin-1-ylmethyl)benzyl)-5,6,7,8-tetrahydroacridine-3-carboxamide]
59.5	O=C(NCC(CN1CCCC1)C(O)c1ccccc1)c1ccc2c(Cl)c3c(nc2c1)CCCC3 (stereo not drawn) [Example 25, 9-chloro-N-(3-hydroxy-3-phenyl-2-pyrrolidin-1-ylmethylpropyl)-5,6,7,8-tetrahydroacridine-3-carboxamide]
8.2	O=C(Nc1cccc(CN2CCCC2)c1)c1ccc2c(Cl)c3c(nc2c1)CCCC3 [Example 19, 9-chloro-N-(3-(pyrrolidin-1-ylmethyl)phenyl)-5.6,7,8-tetrahydroacridine-3-carboxamide]
33.1	CN(C)c1ccc(CN2CCC(CNC(=O)c3ccc4c(Cl)c5c(nc4c3)CCCC5)CC2)cc1 [Example 23]
45.2	O=C(NCC1CCNCC1)c1ccc2c(Cl)c3c(nc2c1)CCCC3 [Example 24, 9-chloro-N-((piperidin-4-yl)methyl)-5,6,7,8-tetrahydroacridine-3-carboxamide]
13.7	CN1CCCC1CCNC(=O)c1ccc2c(Cl)c3c(nc2c1)CCCC3 (stereo not drawn) [Example 17, 9-chloro-N-(2-(1-methylpyrrolidin-2-yl)ethyl)-5,6,7,8-tetrahydroacridino-3-carboxamide]
16.3	O=C(NCc1ccc(CN2CCCC2)cc1)c1ccc2c(Cl)c3c(nc2c1)CCCC3 [Example 21, 9-chloro-N-(4-(pyrrolidin-1-ylmethyl)benzyl)-5,6,7,8-tetrahydroacridine-3-carboxamide]
27.4	COc1ccc(CN2CCC(CNC(=O)c3ccc4c(Cl)c5c(nc4c3)CCCC5)CC2)cc1 [Example 22, 9-chloro-N-((1-(4-methoxybenzyl)piperidin-4-yl)methyl)-5,6,7,8-tetrahydroacridine-3-carboxamide]
45.5	CC1CCCCN1CCCNC(=O)c1ccc2c(Cl)c3c(nc2c1)CCCC3 (stereo not drawn) [Example 20, 9-chloro-N-(3-(2-methylpiperidin-1-yl)propyl)-516,7,8-tetrahydroacridine-3-carboxamide]
